Assay results published in patent publication US11390589B2, “Herbicidally active substituted phenylpyrimidines” (Bayer Aktiengesellschaft, priority 2018, dated 2022).

Columns and labels:
Format in all cases: in vivo
Lolium perenne = assay: Method E: herbicidal early post-emergence action; conditions: cotyledon stage, 96-well microtiter plates, scored visually after 9 to 12 days
Experimental: (§1) Method E: Herbicidal Early Post-Emergence Action Seeds of monocotyledonous or dicotyledonous weed plants are placed in 96-well microtiter plates in quartz sand and grown in a climatized chamber under controlled growth conditions. 5 to 7 days after sowing, the test plants are treated at the cotyledon stage. The compounds of the invention, formulated in the form of emulsion concentrates (EC), are applied with a water application rate of the equivalent of 2200 liters per hectare. After the test plants had been left to stand in the climatized chamber for 9 to 12 days under optimum growth conditions, the effect of the preparations is scored visually in comparison to untreated controls. For example, 100% activity=the plants have died, 0% activity=like control plants.

Poa annua [1] = assay: Method E: herbicidal early post-emergence action; conditions: cotyledon stage, 96-well microtiter plates, scored visually after 9 to 12 days
Experimental: as §1

Stellaria media [2] = assay: Method E: herbicidal early post-emergence action; conditions: cotyledon stage, 96-well microtiter plates, scored visually after 9 to 12 days
Experimental: as §1

Agrostis tenuis = assay: Method E: herbicidal early post-emergence action; conditions: cotyledon stage, 96-well microtiter plates, scored visually after 9 to 12 days
Experimental: as §1

Matricaria chamonilla = assay: Method E: herbicidal early post-emergence action; conditions: cotyledon stage, 96-well microtiter plates, scored visually after 9 to 12 days
Experimental: as §1

harmful plants [3] = assay: Method E: herbicidal early post-emergence action, summary in text; conditions: applied in early post-emergence, table E (1900 g/ha)
Experimental: as §1

Lolium rigidum [4] = assay: Method D: herbicidal pre-emergence action; conditions: scored visually after about 3 weeks
Source text: (§2) Method D: Herbicidal Pre-Emergence Action Seeds of mono- and dicotyledonous weed plants are placed in plastic pots in sandy loam soil (doubly sown with one species each of mono- or dicotyledonous weed plants per pot) and covered with soil. The compounds of the invention, formulated in the form of wettable powders (WP) or as emulsion concentrates (EC), are then applied onto the surface of the covering soil as aqueous suspension or emulsion with addition of 0.5% additive at a water application rate of 600 liters per hectare (converted). After the treatment, the pots are placed in a greenhouse and kept under good growth conditions for the trial plants. After about 3 weeks, the effect of the preparations is scored visually in comparison with untreated controls as percentages. For example, 100% activity=the plants have died, 0% activity=like control plants.

Setaria viridis = assay: Method D: herbicidal pre-emergence action; conditions: scored visually after about 3 weeks
Source text: as §2

Abufilon theophrast = assay: Method D: herbicidal pre-emergence action; conditions: scored visually after about 3 weeks
Source text: as §2

Poa annua [5] = assay: Method D: herbicidal pre-emergence action; conditions: scored visually after about 3 weeks
Source text: as §2

Echinochloa crus-galli [6] = assay: Method D: herbicidal pre-emergence action; conditions: scored visually after about 3 weeks
Source text: as §2

Matricaria inodora = assay: Method D: herbicidal pre-emergence action; conditions: scored visually after about 3 weeks
Source text: as §2

Stellaria media [7] = assay: Method D: herbicidal pre-emergence action; conditions: scored visually after about 3 weeks
Source text: as §2

harmful plants [8] = assay: Method C: herbicidal post-emergence action, summary in text; conditions: applied post-emergence, table C (1280 g/ha)
Experimental: (§3) Method C: Herbicidal Post-Emergence Action Seeds of mono- and dicotyledonous weed plants are placed in plastic pots in sandy loam soil (doubly sown with one species each of mono- or dicotyledonous weed plants per pot), covered with soil and cultivated in a greenhouse under controlled growth conditions. 2 to 3 weeks after sowing, the test plants are treated at the one-leaf stage. The compounds of the invention, formulated in the form of wettable powders (WP) or as emulsion concentrates (EC), are applied to the green parts of the plants as aqueous suspension or emulsion with addition of 0.5% additive at a water application rate equivalent to 600 liters per hectare. After the test plants have been kept in the greenhouse under optimum growth conditions for about 3 weeks, the activity of the preparations is rated visually in comparison to untreated controls. For example, 100% activity=the plants have died, 0% activity=like control plants.

harmful plants [9] = assay: Method D: herbicidal pre-emergence action, summary in text; conditions: applied pre-emergence, table D (1280 g/ha)
Source text: as §2

Lolium rigidum [10] = assay: Method C: herbicidal post-emergence action; conditions: rated visually after about 3 weeks
Experimental: as §3

Poa annua [11] = assay: Method C: herbicidal post-emergence action; conditions: rated visually after about 3 weeks
Experimental: as §3

Echinochloa crus-galli [12] = assay: Method C: herbicidal post-emergence action; conditions: rated visually after about 3 weeks
Experimental: as §3

Stellaria media [13] = assay: Method C: herbicidal post-emergence action; conditions: rated visually after about 3 weeks
Experimental: as §3

| Structure (SMILES) | Early post-emergence action at 1900 g/ha LOLPE (Lolium perenne) [%] | Early post-emergence action at 1900 g/ha POAAN (Poa annua [1]) [%] | Early post-emergence action at 1900 g/ha STEME (Stellaria media [2]) [%] | Early post-emergence action at 1900 g/ha AGSTE (Agrostis tenuis) [%] | Early post-emergence action at 1900 g/ha MATCH (Matricaria chamonilla) [%] | herbicidal efficacy against harmful plants (harmful plants [3]) | Pre-emergence action at 1280 g/ha LOLRI (Lolium rigidum [4]) [%] | Pre-emergence action at 1280 g/ha SETVI (Setaria viridis) [%] | Pre-emergence action at 1280 g/ha ABUTH (Abufilon theophrast) [%] | Pre-emergence action at 1280 g/ha POAAN (Poa annua [5]) [%] | Pre-emergence action at 1280 g/ha ECHCG (Echinochloa crus-galli [6]) [%] | Pre-emergence action at 1280 g/ha MATIN (Matricaria inodora) [%] | Pre-emergence action at 1280 g/ha STEME (Stellaria media [7]) [%] | herbicidal efficacy against harmful plants (harmful plants [8]) | herbicidal efficacy against harmful plants (harmful plants [9]) | Post-emergence action at 1280 g/ha LOLRI (Lolium rigidum [10]) [%] | Post-emergence action at 1280 g/ha POAAN (Poa annua [11]) [%] | Post-emergence action at 1280 g/ha ECHCG (Echinochloa crus-galli [12]) [%] | Post-emergence action at 1280 g/ha STEME (Stellaria media [13]) [%] |
| --- | --- | --- | --- | --- | --- | --- | --- | --- | --- | --- | --- | --- | --- | --- | --- | --- | --- | --- | --- |
| CN(NC(=O)C(=O)Cc1nc(C2CC2)ncc1-c1ccccc1Cl)C(=O)OC(C)(C)C [IV-137, tert-butyl 2-{3-[5-(2-chlorophenyl)-2-cyclopropylpyrimidin-4-yl]-2-oxopropanoyl}-1-methylhydrazinecarboxylate] | 80 | 80 | 100 | 100 | 80 | very good herbicidal efficacy | 90 | 90 | 90 | 100 | 90 | 90 | 100 | very good herbicidal efficacy | very good herbicidal efficacy | 100 | 100 | 100 | 100 |
| O=C(Cc1nc(C2CC2)ncc1-c1c(F)cccc1Cl)C(=O)N1CCCCC1 [Example I-146, 3-[5-(2-chloro-6-fluorophenyl)-2-cyclopropylpyrimidin-4-yl]-1-(piperidin-1-yl)propane-1,2-dione] | 80 | 80 | 80 | 80 | 80 | – | – | – | – | – | – | – | – | – | – | – | – | – | – |
